Reference: article PMC11945486, “TAS1R2/TAS1R3 Single-Nucleotide Polymorphisms Affect Sweet Taste Receptor Activation by Sweeteners: The SWEET Project” (Nutrients, 2025)

Target: T1, mTAS1R2-WT/mTAS1R3-I60T (Mus musculus, UniProt Q925D8+Q925I4, I60T)
T1 construct: expressed in transfected cells; host or cells: HEK293T-Gα16gust44
T1 sequence (Q925I4 20-843): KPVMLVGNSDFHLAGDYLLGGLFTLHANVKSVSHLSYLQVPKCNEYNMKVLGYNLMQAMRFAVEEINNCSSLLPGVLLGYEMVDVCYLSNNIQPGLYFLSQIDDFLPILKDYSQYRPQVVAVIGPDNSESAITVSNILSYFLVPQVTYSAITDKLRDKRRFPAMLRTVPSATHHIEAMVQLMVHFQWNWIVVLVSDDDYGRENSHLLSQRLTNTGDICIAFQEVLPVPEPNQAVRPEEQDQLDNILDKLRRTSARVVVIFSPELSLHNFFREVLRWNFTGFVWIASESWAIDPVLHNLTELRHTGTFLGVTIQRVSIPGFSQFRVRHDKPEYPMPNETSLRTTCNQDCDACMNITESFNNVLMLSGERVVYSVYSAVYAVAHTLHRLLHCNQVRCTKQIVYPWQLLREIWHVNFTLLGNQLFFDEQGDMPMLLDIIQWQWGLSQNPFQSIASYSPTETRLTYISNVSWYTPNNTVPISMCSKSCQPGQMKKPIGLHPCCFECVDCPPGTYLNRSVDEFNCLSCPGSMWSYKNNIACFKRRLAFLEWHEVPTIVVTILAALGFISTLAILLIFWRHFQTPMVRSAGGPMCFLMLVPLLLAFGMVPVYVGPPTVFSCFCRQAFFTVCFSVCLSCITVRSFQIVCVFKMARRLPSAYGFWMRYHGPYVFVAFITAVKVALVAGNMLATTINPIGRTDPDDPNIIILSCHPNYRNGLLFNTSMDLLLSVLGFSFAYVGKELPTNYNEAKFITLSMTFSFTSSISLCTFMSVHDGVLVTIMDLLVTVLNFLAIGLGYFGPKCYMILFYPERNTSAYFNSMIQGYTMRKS
T1 sequence (Q925D8 21-858 I60T): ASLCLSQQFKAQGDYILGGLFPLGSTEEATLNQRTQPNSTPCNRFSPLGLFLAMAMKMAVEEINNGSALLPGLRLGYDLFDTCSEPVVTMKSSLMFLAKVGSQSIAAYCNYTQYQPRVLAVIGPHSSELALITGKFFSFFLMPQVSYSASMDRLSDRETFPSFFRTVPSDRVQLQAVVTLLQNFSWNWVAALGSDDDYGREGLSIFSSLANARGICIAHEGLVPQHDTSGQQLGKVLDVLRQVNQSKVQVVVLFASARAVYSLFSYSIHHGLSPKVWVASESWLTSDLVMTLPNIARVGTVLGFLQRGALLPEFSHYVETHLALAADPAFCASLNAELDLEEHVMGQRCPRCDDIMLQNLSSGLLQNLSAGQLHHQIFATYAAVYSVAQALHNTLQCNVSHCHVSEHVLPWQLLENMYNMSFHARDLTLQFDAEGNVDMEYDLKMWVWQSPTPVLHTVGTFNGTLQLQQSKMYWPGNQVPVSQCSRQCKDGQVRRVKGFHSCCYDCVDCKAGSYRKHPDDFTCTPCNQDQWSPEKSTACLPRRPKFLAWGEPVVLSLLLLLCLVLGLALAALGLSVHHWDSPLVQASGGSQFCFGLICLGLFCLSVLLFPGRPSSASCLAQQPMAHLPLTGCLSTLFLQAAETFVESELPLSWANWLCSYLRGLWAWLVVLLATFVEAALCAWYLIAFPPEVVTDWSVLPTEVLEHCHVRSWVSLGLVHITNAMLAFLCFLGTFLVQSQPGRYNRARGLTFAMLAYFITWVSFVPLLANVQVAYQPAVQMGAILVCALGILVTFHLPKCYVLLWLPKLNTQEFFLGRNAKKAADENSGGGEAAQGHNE
Test: Calcium mobilisation assay, HEK293T-Gα16gust44 cells, mouse TAS1R3-I60T variant
Type: cell-based
Settings: "-": no activation; for EC50 / Max ΔF/F0: mTAS1R2-WT + mTAS1R3-I60T; for Max ΔF/F0: maximal signal amplitude; for R1 = Variant EC50/WT EC50: mTAS1R3-I60T vs mTAS1R3-WT
Description: The HEK293T cells were kindly provided by Jay P. Slack (Givaudan Flavors Corporation; Cincinnati, OH, USA). HEK293T cells stably transfected with Gα16gust44 [43, 67] were seeded in poly-D-lysine-coated clear-bottom black 96-well plates (0.35 × 10^5 cells/well) in high-glucose DMEM supplemented with 2 mM GlutaMAX, 10% dialysed foetal bovine serum with penicillin/streptomycin and G418 (400 μg/mL) at 37 °C and 6.3% CO2 in a humidified atmosphere as previously reported. […] As a negative control, HEK293T cells were mock-transfected with the empty expression vector. After a further 24 h of incubation, the HEK293T cells were washed with C1 buffer (130 mM NaCl, 5 mM KCl, 10 mM HEPES pH 7.4 and 2 mM CaCl2). The 96-well plates containing the cells were then stimulated with sweet-tasting compounds. […] Different concentration ranges were tested depending on the sweet compound injected. The Ca^2+ changes were expressed as fractional changes in fluorescent light intensity: ΔF/F = (F − F0)/F0, where F was the fluorescent light intensity at each point, and F0 was the value of emitted fluorescent light prior to stimulus application. To calculate dose–response relationships, the changes in fluorescence upon stimulus application were averaged, mock-subtracted and baseline-corrected. The dose–response data obtained were adjusted using a 4-parameter logistic equation. The half-maximal effective concentrations (EC50 values) and maximal signal amplitudes were calculated using SigmaPlot software (version 15.0) (Systat Software; San Jose, CA, USA).
HEK293T-Gα16gust44 cells were transiently cotransfected with pcDNA6-MAX-mTAS1R2-FLAG, pcDNA4-MAX-mTAS1R3-WT-FLAG or pcDNA4-MAX-mTAS1R3-I60T-FLAG, and pCMV-GCaMP5G as previously described in detail. After 24 h, the cells were washed with C1 buffer and stimulated with a logarithmically increasing range of sweetener concentrations. Calcium responses during automated application were monitored using a FlexStation®3 Multi-Mode microplate reader. The dose–response curves, EC50 values and maximal signal amplitudes were calculated as previously described.
For in vitro calcium mobilisation assay performed on hTAS1R2-SNPs, hTAS1R3-SNPs and mTAS1R3-I60T, 6 to 7 concentrations were tested for each sweet compound, plus buffer alone. All concentration–receptor combinations were measured in duplicate, and each experiment was repeated at least 4 times (8 wells/concentration). Results were expressed for each concentration as ΔF/F mean ± SEM and represented as dose–response curves.

SMILES | EC50 [µM] | Max ΔF/F0 | R1 = Variant EC50/WT EC50
OC[C@H]1O[C@H](O[C@]2(CCl)O[C@H](CCl)[C@@H](O)[C@@H]2O)[C@H](O)[C@@H](O)[C@H]1Cl [Sucralose] | 1520 ± 56 | 1.47 ± 0.03 | 2.0
C=C1C[C@@]23CC[C@H]4[C@@](C)(CCC[C@@]4(C)C(=O)O[C@@H]4O[C@H](CO)[C@@H](O)[C@H](O[C@@H]5O[C@H](CO)[C@@H](O)[C@H](O)[C@H]5O)[C@H]4O[C@@H]4O[C@H](CO)[C@@H](O)[C@H](O)[C@H]4O)[C@@H]2CC[C@]1(O[C@@H]1O[C@H](CO)[C@@H](O)[C@H](O[C@@H]2O[C@H](CO)[C@@H](O)[C@H](O)[C@H]2O)[C@H]1O[C@@H]1O[C@H](CO)[C@@H](O)[C@H](O)[C@H]1O)C3 [Rebaudioside M, rebaudioside M] | 73 ± 2 | 0.71 ± 0.01 | 1.7
CC1=CC(=O)NS(=O)(=O)O1 [Acesulfame K, acesulfame K] | 744 ± 19 | 1.03 ± 0.02 | 1.7
C[C@H](CC[C@@H](O[C@@H]1O[C@H](CO[C@@H]2O[C@H](CO)[C@@H](O)[C@H](O)[C@H]2O)[C@@H](O)[C@H](O)[C@H]1O[C@@H]1O[C@H](CO)[C@@H](O)[C@H](O)[C@H]1O)C(C)(C)O)[C@H]1CC[C@@]2(C)[C@@H]3CC=C4[C@@H](CC[C@H](O[C@@H]5O[C@H](CO[C@@H]6O[C@H](CO)[C@@H](O)[C@H](O)[C@H]6O)[C@@H](O)[C@H](O)[C@H]5O)C4(C)C)[C@]3(C)[C@H](O)C[C@]12C [Mogroside V, mogroside V] | 225 ± 25 | 0.50 ± 0.03 | 1.7
